Data: patent EP0181129B1, “N6-substituted deoxyribose analogs of adenosines” (WARNER-LAMBERT COMPANY, priority 1984, dated 1986)

Columns and labels:
adenosine A1 receptor = biological target: T1, adenosine A1 receptor (Rattus norvegicus, UniProt P25099); experiment: Adenosine Receptor Binding - A1 Receptor Affinity (RBA1), [3H]-CHA displacement; conditions: 1.0 nM [3H]-CHA, rat whole brain membranes, one hour at 25°C; read-out: Receptor Binding RBA—1
T1 construct: brain minus cerebellum and brainstem from male Long Evans rats (150-200 g) was homogenized; from tissue; host or cells: rat whole brain minus cerebellum and brainstem, membrane homogenate
T1 sequence (P25099 1-326): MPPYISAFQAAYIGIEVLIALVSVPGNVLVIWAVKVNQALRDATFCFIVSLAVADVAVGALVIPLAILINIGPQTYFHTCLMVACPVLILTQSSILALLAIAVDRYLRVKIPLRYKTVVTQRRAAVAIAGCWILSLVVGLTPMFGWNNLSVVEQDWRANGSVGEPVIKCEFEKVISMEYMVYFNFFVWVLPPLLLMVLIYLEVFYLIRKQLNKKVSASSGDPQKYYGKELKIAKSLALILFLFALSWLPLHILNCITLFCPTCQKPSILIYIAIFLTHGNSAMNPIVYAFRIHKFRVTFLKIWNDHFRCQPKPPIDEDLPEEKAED
Experimental: While brain minus cerebellum and brainstem from male Long Evans rats (150-200 g) was homogenized in 30 volumes of ice-cold 0.05 M Tris-CHI buffer pH 7.7 using a Brinkman Polytron PT-10, (setting number 6 for 20 seconds) and centrifuged for ten minutes at 20,000 x g (Sorvall RC-2), 4°C. The supernatant was discarded, and the pellet was resuspended and centrifuged as before. The pellet was resuspended in 20 ml Tris-HCI buffer containing two International Units/ml of adenosine deaminase (Sigma type III from calf intestinal mucosa), incubated at 37°C for 30 minutes, then subsequently at 0°C for ten minutes. The homogenate was again centrifuged, and the final pellet was resuspended in ice-cold 0.05 M Tris-HCI buffer pH 7.7 to a concentration of 20 mg/ml original wet tissue weight and used immediately.
Tissue homogenate (10 mg/ml) was incubated in 0.05 M Tris-HCI buffer pH 7.7 containing 1.0 nM (^3H]-N^e-cyclohexyladenosine ([^3H]-CHA) with or without tests agents in triplicate for one hour at 25°C. Incubation volume was 2 ml. Unbound [^3H]-CHA was separated by rapid filtration under reduced pressure through Whatman glass fiber (GF/B) filters. The filters were rinsed three times with 5 ml of ice cold 0.05 M Tris-HCI buffer pH 7.7. The radio-labeled ligand retained on the filter was measured by liquid scintillation spectrophotometry after shaking the filters for one hour or longer on a mechanical shaker in 10 ml of Beckman Ready-Solv HP scintillation cocktail.
Nonspecific binding was defined as the binding which occurred in the presence of 1 mM theophylline. […] The Scatchard plot was calculated by linear regression of the line obtained by plotting the amount of radioligand bound (pmoles/gram of tissue) [formula] Since the amount of radioligand bound was a small fraction of the total amount added, free radioligand was defined as the concentration (nM) of radioligand added to the incubation mixture. The Hill coefficient was calculated by linear regression of the line obtained by plotting the log of the bound radioligand vs the log of the [formula] The maximal number of binding sites (Bmax) was calculated from the Scatchard plot.

adenosine A2 receptor = biological target: T2, adenosine A2 receptor (Rattus norvegicus, UniProt P30543); experiment: Adenosine Receptor Binding - A2 Receptor Affinity (RBA2), [3H]NECA displacement; conditions: 4 nM [3H]NECA with 50 nM N6-cyclopentyladenosine, rat striatal membranes, 60 minutes at 25°C; read-out: Receptor Binding RBA—2
T2 construct: Brains were thawed and then kept on ice while the striata were dissected out; tissue Pel-Freez (Rogers, Arkansas); host or cells: rat striatum, membranes
T2 sequence (P30543 whole entry): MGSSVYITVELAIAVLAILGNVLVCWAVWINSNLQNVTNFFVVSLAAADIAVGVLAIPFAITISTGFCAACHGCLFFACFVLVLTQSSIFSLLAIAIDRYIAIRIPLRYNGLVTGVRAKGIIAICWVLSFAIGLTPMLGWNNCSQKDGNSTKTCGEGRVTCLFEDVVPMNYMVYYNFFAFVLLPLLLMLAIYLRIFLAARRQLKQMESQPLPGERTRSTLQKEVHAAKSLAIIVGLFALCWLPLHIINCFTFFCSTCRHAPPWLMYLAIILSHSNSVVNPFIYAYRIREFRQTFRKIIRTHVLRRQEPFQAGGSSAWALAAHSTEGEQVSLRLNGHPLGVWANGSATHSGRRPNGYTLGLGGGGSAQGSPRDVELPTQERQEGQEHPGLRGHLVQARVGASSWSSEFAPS
Experimental: Brains from 200-500 g mixed sex Sprague-Dawley rats were purchased from Pel-Freez (Rogers, Arkansas). Fresh brains from male Long-Evans hooded rats (Blue Spruce Farms, Altamont, NY) gave essentially indentical results. Brains were thawed and then kept on ice while the striata were dissected out. Striata were disrupted in 10 vol of ice-cold 50 mM Tris.HCI (pH 7.7 at 25°C, pH 8.26 at 5°C) (Tris) for 30 seconds in a Polytron PT―10 (Brinkmann) at setting 5. The suspension was centrifuged at 50,000 xg for ten minutes, the supernatant discarded, the pellet resuspended in 10 vol ice-cold Tris as above, recentrifuged, resuspended at 1 g/5 ml, and stored in plastic vials at -70°C (stable for at least six months). When needed, tissue was thawed at room temperature, disrupted in a Polytron, and kept on ice until used.
All incubations were for 60 minutes at 25°C in 12x75 mm glass tubes containing 1 ml Tris with 5 mg original tissue weight of rat weight of rat striatal membranes, 4 nM [^3H]-N-ethyl adenosine-5'-carboxamide ([^3H]NECA), 50 nM N^6-cyclopentyladenosine (to eliminate A1 receptor binding), 10 mM MgCl2, 0.1 units/ml, of adenosine deaminase and 1% dimethylsulfoxide. N^6-Cyclopentyladenosine was dissolved at 10 mM in 0.02 N HCI and diluted in Tris. Stock solutions and dilutions of N^6-cyclopentyladenosine could be stored at -20°C for several months. Test compounds were dissolved at 10 mM in dimethylsulfoxide or the same day as the experiment, and diluted in dimethylsulfoxide to 100x the final incubation concentration. Control incubations received an equal volume (10 µl) of dimethylsulfoxide; the resulting concentration of dimethylsulfoxide had no effect on binding. [^3H]NECA was diluted to 40 nM in Tris. The membrane suspension (5 mg/0.79 ml) contained sufficient MgCl2 and adenosine deaminase to give 10 mM and 0.1 units/ml, respectively, final concentration in the incubation. […] After all additions, the rack of tubes was vortexed, and the tubes were then incubated for 60 min at 25°C in a shaking water bath. The rack of tubes was vortexed an additonal time halfway through the incubation.
Incubations were terminated by filtration through 2.4 cm GF/B filters under reduced pressure. Each tube was filtered as follows: the contents of the tube were poured onto the filter, 4 ml of ice-cold Tris were added to the tube and the contents poured onto the filter, and the filter was washed twice with 4 ml of ice-cold Tris. The filtration was complete in about twelve seconds. Filters were put in scintillation vials, 8 ml of Formula 947 scintillation fluid added, and the vials left overnight, shaken, and counted in a liquid scintillation counter at 40% efficiency.
Nonspecific binding was defined as binding in the presence of […] N^6-cyclopentyladenosine, and specific binding was defined as total binding minus nonspecific binding. The IC50 was calculated by weighted nonlinear least squares curve-fitting to the mass-action equation. [formula] • where Y is cpm bound T is cpm total binding without drug S is cpm specific binding without drug D is the concentration of drug • and K is the IC50 of the drug Weighting factors were calculated under the assumption that the standard deviation was proportional to the predicted value of Y. Nonspecific binding was treated as a very large (infinite) concentration of drug in the computer analysis.

IC50 (adenosine A1 receptor) [µM] | IC50 (adenosine A2 receptor) [µM] | SMILES
0.08 | 3.04 | O[C@@H]1[C@H](O)[C@@H](CCl)O[C@H]1n1cnc2c(NC3CCc4ccccc43)ncnc21 (stereo partly drawn) [Example 23, (R)-N^6(1-Indanyl)-5'-deoxy-5'-chloroadenosine]
1.01 | 0.323 | C[C@H]1O[C@@H](n2cnc3c(NCc4cccc5ccccc45)ncnc32)[C@H](O)[C@@H]1O [Example 20, N^6-α-Naphthylmethyl-5' -deoxyadenosine]

SMILES | IC50 (adenosine A1 receptor) [µM] | IC50 (adenosine A2 receptor) [µM]
C[C@H]1O[C@@H](n2cnc3c(NC4CCCc5ccccc54)ncnc32)[C@H](O)[C@@H]1O (stereo partly drawn) [Example 19, N^6-1-Tetralinyl-5' -deoxyadenosine] | 1.37 | 71.3
